Reference: US20250257048A1, “METHODS OF PREPARING AN ISOINDOLINONE DERIVATIVE AND CRYSTAL FORMS THEREOF” (Monte Rosa Therapeutics, Inc., priority 2022, published 2025)
“And” between values parts separate entries of the source, which are not always exact repeats. Identical values can stand only once. Like-named read-outs stand apart in the source and are kept apart here. Blank lines part the entries; values can stand above or below the molecule they belong to.

Columns and labels:
[1] = molecular target: Full length wild-type cereblon CRBN (Homo sapiens (Human), UniProt Q96SW2); assay: fluorescence polarization (FP) homogeneous assay, cereblon binding; conditions: CRBN 80.0 nM, probe 5 nM, FP read after 12 hours, read-out: rFP IC50
Chain of Full length wild-type cereblon CRBN (Q96SW2 whole entry): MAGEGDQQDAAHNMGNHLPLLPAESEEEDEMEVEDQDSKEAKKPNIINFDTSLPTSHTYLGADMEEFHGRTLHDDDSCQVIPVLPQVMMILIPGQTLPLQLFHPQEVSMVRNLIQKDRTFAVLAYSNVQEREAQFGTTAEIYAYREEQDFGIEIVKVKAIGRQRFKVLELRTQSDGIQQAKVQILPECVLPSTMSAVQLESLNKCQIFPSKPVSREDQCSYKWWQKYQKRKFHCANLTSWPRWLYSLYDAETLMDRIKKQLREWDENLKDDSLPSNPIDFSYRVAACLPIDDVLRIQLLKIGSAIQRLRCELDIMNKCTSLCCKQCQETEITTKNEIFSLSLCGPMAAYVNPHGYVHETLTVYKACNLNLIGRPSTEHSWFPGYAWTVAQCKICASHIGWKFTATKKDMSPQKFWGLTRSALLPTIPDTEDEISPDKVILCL
Procedure: Compound activity was monitored in a fluorescence polarization (FP) homogeneous assay using 1-[5-({2-[2-(2-{[2-(2,6-dioxopiperidin-3-yl)-1,3-dioxo-2,3-dihydro-1H-isoindol-4-yl]oxy}acetamido) ethoxy]ethyl}carbamoyl) pentyl]-3,3-dimethyl-2-[(1E,3E)-5-[(2E)-1,3,3-trimethyl-5-sulfo-2,3-dihydro-1H-indol-2-ylidene]penta-1,3-dien-1-yl]-3H-indol-1-ium-5-sulfonate as a fluorescent probe. Unless otherwise stated, all reagents were purchased from Sigma Aldrich. Enzymatic reactions were conducted in Perkin-Elmer Black 384 well ProxiPlate Plus (catalogue no. 6008269) in 10 μL total volume. Full length wild-type cereblon CRBN (80.0 nM, 10 μL) was incubated in assay buffer containing 20 mM HEPES (pH 8.0), […], 0.5 mM TCEP and 0.05% Tween 20 in the presence or absence of compound (300 nL). Inhibitors were stored as 10 mM DMSO stocks in an inert environment (low humidity, dark, low oxygen, room temperature) using the Storage Pod System. Compounds and DMSO were dispensed using the Echo E5XX (Labcyte Inc. USA) to give concentrations from 300 to 0.937 or 3000 to 9.3 nM in a 12 data point curve. […] FP was measured after a period of 12 hours using a Pherastar plate reader (BMG Labtech, Germany) exciting at 590 nm and measuring the amount of parallel and perpendicular light at 675 nm. […]

GSPT1 = GSPT1 (Homo sapiens (Human), UniProt P15170+Q96SW2); assay: immunofluorescence assay for GSPT1 degradation in CAL-51 cells; type: cell-based; conditions: 6 hours treatment
Chain of GSPT1 (P15170 whole entry): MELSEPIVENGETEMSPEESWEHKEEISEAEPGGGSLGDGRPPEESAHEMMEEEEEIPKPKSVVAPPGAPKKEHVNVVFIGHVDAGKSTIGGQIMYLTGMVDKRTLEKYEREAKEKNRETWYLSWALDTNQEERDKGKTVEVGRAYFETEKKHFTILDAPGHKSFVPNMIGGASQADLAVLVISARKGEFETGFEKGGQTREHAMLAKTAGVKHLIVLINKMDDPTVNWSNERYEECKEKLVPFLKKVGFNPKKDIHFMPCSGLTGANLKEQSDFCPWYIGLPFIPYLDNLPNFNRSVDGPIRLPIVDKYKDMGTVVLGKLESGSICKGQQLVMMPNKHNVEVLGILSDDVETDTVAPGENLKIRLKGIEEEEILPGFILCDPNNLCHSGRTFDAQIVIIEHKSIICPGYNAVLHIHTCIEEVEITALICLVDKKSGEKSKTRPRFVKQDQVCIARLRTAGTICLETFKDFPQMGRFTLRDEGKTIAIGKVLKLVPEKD
Chain of GSPT1 (Q96SW2 whole entry): as the sequence (Q96SW2 whole entry) above
Chain of GSPT1 (Q16531 whole entry partner): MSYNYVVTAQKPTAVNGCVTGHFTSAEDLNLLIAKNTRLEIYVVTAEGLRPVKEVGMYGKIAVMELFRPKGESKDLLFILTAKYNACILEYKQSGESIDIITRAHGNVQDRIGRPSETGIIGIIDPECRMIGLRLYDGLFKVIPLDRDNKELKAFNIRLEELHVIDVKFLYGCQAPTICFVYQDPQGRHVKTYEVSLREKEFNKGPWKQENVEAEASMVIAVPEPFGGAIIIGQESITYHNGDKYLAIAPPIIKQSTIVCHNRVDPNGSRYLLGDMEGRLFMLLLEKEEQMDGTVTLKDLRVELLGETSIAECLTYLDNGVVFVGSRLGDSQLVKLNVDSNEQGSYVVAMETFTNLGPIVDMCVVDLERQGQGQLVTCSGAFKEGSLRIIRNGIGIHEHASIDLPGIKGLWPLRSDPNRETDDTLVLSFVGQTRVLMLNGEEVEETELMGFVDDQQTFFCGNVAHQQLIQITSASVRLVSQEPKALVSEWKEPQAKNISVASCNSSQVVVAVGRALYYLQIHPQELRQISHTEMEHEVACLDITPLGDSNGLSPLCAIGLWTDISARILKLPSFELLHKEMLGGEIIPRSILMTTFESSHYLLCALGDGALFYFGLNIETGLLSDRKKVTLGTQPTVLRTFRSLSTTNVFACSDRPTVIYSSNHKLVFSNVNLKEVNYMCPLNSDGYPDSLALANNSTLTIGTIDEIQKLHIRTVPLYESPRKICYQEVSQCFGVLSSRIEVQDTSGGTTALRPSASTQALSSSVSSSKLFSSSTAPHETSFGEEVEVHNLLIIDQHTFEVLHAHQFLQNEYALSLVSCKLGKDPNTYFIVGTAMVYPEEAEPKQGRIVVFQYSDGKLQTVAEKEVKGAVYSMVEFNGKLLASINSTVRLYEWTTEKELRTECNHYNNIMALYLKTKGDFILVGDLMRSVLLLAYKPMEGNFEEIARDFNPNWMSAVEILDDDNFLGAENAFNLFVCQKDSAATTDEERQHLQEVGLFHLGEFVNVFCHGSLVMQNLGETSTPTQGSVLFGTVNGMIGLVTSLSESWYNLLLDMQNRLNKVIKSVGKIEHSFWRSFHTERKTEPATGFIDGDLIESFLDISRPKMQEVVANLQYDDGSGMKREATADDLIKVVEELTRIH
Procedure: The representative compounds were tested in an immunofluorescence assay for their activity to bind to degrade GSPT1. CAL-51 cells were purchased from DSMZ (cat. Number ACC302), sub-cultured in 90% Dulbecco's MEM (4.5 g/L glucose, Gibco 11965)+10% heat inactivated FBS (BioConcept, 2-01F136I) and incubated at 37° C., 5% CO2. For the assay, imaging microtiterplate Cell Carrier 96 Ultra (Perkin Elmer 6055302) were pre-coated with Fibronectin (Sigma F085, 30 μl at 0.2 μg/ml) in PBS (100 μl, Gibco 14190) for 45 min at room temperature, rinsed with PBS and CAL-51 cells (30K cells/well) were plated and let to adhere overnight. Cells were treated with compounds typically using a serial dilution ranging from 30 μM to 0.1 nM for 6 hours. […]
Primary antibody (human GSPT1, Sigma HPA052488) was diluted in blocking buffer (dil.1/300, 35 μl/well) and incubated with the cells overnight at 4° C. […] Fluorescence intensity of Alexa-Fluor 488 (GSPT1), Alexa-Fluor 647 (Actin) and DAPI (Nucleus) were measured. […] The outline of the cells was determined analogously from the sum of the normalized, smoothed DAPI and Actin channel, starting from each nucleus.
The Alexa-Fluor 488 (GSPT1) signal intensity in each cell was finally measured, in order to obtain a Mean intensity per cell. GSPT1 degradation (DC50) was calculated after normalization to controls and data import in CDD vault Database, using non-linear regression. […]

[2] = solid stability at 40° C./75% RH and 25° C./60% RH for 7 days (HPLC purity, XRPD); type: physicochemical; conditions: for physical and chemical stability: 25° C. 60% RH and 40° C. 75% RH for 7 days
Procedure: Solid stability was evaluated at 40° C./75RH and 25° C./60% RH for 7 days.

[3] = solubility of crystalline Form I in media (water) at 37° C.; type: physicochemical
Procedure: Solubility of crystalline Form I was evaluated by weighing about 10 mg of crystalline Form I into 2 mL of media, and then stirring the suspension at 37° C. for 24 hours. At 1, 4 and 24 hours, the suspensions were filtered, and the filtrates were analyzed by HPLC and pH.

[4] = hygroscopicity of crystalline form; type: physicochemical

- IC50 [1]: 500 to 1100 nM
- DC50 (GSPT1): 30 to 300 nM
Compound: O=C1CCC(N2Cc3ccc(COC(=O)Nc4cc(OC(F)(F)F)ccc4F)cc3C2=O)C(=O)N1 (centres unmarked) [Compound 145, (2-(2,6-dioxopiperidin-3-yl)-3-oxoisoindolin-5-yl)methyl (2-fluoro-5-(trifluoromethoxy)phenyl)carbamate]

- physical and chemical stability [2]: good physical and chemical stability
- physical and chemical stability ([2]; listed as Crystalline Form I): physically and chemically stable
- physical and chemical stability ([2]; listed as crystalline Form I): no obvious degradation nor form change
- Purity ([2]; 25° C./60% RH, 1 day): 100%
- XRPD ([2]; 25° C./60% RH, 1 day): Form I
- Purity ([2]; 25° C./60% RH, 7 day): 100%
- XRPD ([2]; 25° C./60% RH, 7 day): Form I
- Purity ([2]; 40° C./75% RH, 1 day): 100%
- XRPD ([2]; 40° C./75% RH, 1 day): Form I
- Purity ([2]; 40° C./75% RH, 7 day): 99.95%
- XRPD ([2]; 40° C./75% RH, 7 day): Form I
- Purity-T0 ([2]; T0 (day 0), HPLC): 100%
- crystal form of remained solid in all media ([3]; 37° C., after 1, 4 and 24 hours, XRPD (FIG. 5)): unchanged
- solubility ([3]; aqueous solution, 37 °C, aqueous buffer, thermodynamic from solid, about pH 6 to 7, read-out: solubility in an aqueous solution): < 1 µg/mL
- pH(24 h) ([3]; pH of filtrate, H2O, 37° C., 24 h): 6.35 and 6.61 and 6.41
- XRPD(24 h) ([3]; remained solid, H2O, 37° C., 24 h): Form I
- solubility at 1 h ([3]; water, 37 °C, thermodynamic from solid, H2O, 1 h, triplicate H2O-1 to H2O-3): < 1 µg/mL
- solubility at 4 h ([3]; water, 37 °C, thermodynamic from solid, H2O, 4 h, triplicate H2O-1 to H2O-3): < 1 µg/mL
- solubility at 24 h ([3]; water, 37 °C, thermodynamic from solid, H2O, 24 h, triplicate H2O-1 to H2O-3): < 1 µg/mL
- solubility ([3]; water, 37 °C, water, thermodynamic from solid, read-out: solubility in water): < 1 µg/mL
- hygroscopicity [4]: nonhydroscopic
Compound: O=C1CCC(N2Cc3ccc(COC(=O)Nc4cc(OC(F)(F)F)ccc4F)cc3C2=O)C(=O)N1 (centres unmarked) [Form I, (2-(2,6-dioxopiperidin-3-yl)-3-oxoisoindolin-5-yl)methyl (2-fluoro-5-(trifluoromethoxy)phenyl)carbamate]
